Active and inactive are the calls of the source. No cut-off for these calls is given here.
Legend:
[1] = tested on: Mus musculus; assay: In vivo inverse agonist activity at CB1 receptor in C57 mouse assessed as reduction in CP55940-induced inhibition of upper gastrointestinal motility at 10 mg/kg, po after 2 hrs; type: functional, organism-based
[2] = Ratio of drug level in brain to plasma in C57BL/6J mouse at 20 mg/kg, po measured after 1 hr; type: ADME, organism-based; details: brain and plasma
[3] = target: Cannabinoid receptor 1 (Homo sapiens, UniProt P21554); assay: Inverse agonist activity at human CB1 receptor expressed in HEK293 cells assessed as forskolin-stimulated cAMP accumulation after 30 mins by HTRF assay; type: functional, cell-based
Chain of Cannabinoid receptor 1 (P21554 whole entry): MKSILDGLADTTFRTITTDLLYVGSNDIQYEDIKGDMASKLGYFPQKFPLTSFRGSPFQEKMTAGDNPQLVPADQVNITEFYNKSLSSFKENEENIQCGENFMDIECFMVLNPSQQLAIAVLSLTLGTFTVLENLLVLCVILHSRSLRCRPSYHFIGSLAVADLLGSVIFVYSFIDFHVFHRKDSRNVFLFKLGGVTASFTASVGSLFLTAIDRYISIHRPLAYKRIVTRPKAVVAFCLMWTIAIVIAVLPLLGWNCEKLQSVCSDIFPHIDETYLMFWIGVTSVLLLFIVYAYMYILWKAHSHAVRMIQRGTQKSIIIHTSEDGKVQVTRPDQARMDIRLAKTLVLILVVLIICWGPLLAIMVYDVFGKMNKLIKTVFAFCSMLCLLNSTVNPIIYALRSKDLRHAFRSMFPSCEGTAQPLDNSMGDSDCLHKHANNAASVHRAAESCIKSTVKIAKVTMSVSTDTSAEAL

[4] = Ratio of drug level in brain to plasma in C57BL/6J mouse at 20 mg/kg, po measured after 4 hr; type: ADME, organism-based; details: brain and plasma
[5] = organism: Homo sapiens; assay: Selectivity index, ratio of EC50 for human CB2 receptor expressed in HEK293 cells to EC50 for human CB1 receptor expressed in HEK293 cells; type: cell-based

Kp at 1 h [2] | EC50 [3] [nM] | Kp at 1 h [4] | SMILES | Activity [1] | Ratio EC50 [5]
– | – | – | Cc1c(C(=O)NN2CCCCC2)nn(-c2ccc(Cl)cc2Cl)c1-c1ccc(Cl)cc1 | Active | –
0.02 | 4.6 | 0.08 | O=S(=O)(N1CCC(Nc2ncnc3ccc(C(c4ccc(Cl)cc4)c4ccc(Cl)cc4)cc23)CC1)C(F)(F)F | – | 170
– | 7.8 | – | O=C(NC(CO)(CO)CO)c1ccc(S(=O)(=O)N2CCC(Nc3ncnc4ccc(C(c5ccc(Cl)cc5)c5ccc(Cl)cc5)cc34)CC2)cc1 | – | –

Reference: ChEMBL document CHEMBL4665918, “Discovery of PEGylated 6-Benzhydryl-4-amino-quinazolines as Peripherally Restricted CBR Inverse Agonists” (ACS Med Chem Lett, 2020)
